1 compound from patent US10703760B2, “Morphic forms of marizomib and uses thereof” (Celgene International II Sàrl, priority 2016, dated 2020) can be followed below.

Format in all cases: physicochemical
One series can be described thus: Salt screen of marizomib. Particulars: sulfonic acids and mineral acids. The procedure:
For crash cooling (CC), a solution of MRZ and coformer was prepared at elevated temperature in a given solvent mixture. The vial was capped and immediately placed in a refrigerator or freezer. For fast cooling (FC), solutions of MRZ and coformer were prepared at elevated temperatures in given solvents or solvent mixtures. The vial was capped and placed on a bench top at room temperature to quickly cool. For slow cooling (SC), a solution of MRZ and coformer was prepared at elevated temperature in a given solvent mixture. The vial was capped and left in a heating block at elevated temperature. The heater then was turned off for the sample to cool down naturally to room temperature. For slow evaporation (SE), solutions of MRZ and coformer were generated at ambient temperature in a given solvent or solvent mixture. The solutions were allowed to evaporate partially or to dryness from a loosely capped vial at ambient conditions. Slurry experiments were carried out by making saturated solutions containing excess solid. The slurries were agitated at ambient or elevated temperatures for a specified amount of time. The solids present were recovered via positive pressure filtration. Solvent assisted grinding experiments were carried out by mixing MRZ and coformer in an agate mortar and pestle. Aliquots of solvent were added and the mixture ground manually for specified amount of time. […]

Series [1] can be described thus: Variable temperature XRPD. As to conditions: 25° C. to 160° C.; listed as morphic Form I. As to the method:
Samples run under non-ambient conditions were mounted on a silicon wafer with heat-conducting compound. The sample was then heated to the appropriate temperature at 20° C./min and subsequently held isothermally for 1 minute before data collection was initiated.

A short description of series [2]: Polymorph screen of marizomib Sample 4 (evaporation, cooling, solvent/antisolvent, slurry, grinding, heat stress, amorphous attempts). The procedure: For slow evaporation (SE), solutions containing marizomib Sample 4 in selected solvents were allowed to evaporate at ambient temperature from vials covered with perforated aluminum foil. For fast evaporation (FE), solutions containing marizomib Sample 4 in selected solvents were allowed to evaporate at ambient temperature from open vials. The results are given below in Table-10. For flash evaporation, […] of disordered marizomib Sample 4 were added dropwise to pre-warmed glass vials, allowing the solvent to flash evaporate immediate upon contact. Resulting solids were collected for analysis. The corresponding figure numbers are given in the right hand column.
For crash cooling (CC), concentrated solutions of marizomib Sample 4 were prepared at elevated temperature and filtered through pre-warmed 0.2-μm nylon filters into a clean vial pre-chilled in a dry ice/acetone bath. For fast cooling (FC) and slow cooling (SC), solutions containing marizomib Sample 4 in selected solvents at elevated temperatures in sealed vials. Solutions were then filtered into clean vials with 0.2-μm nylon filters and removed from the heating plate and left at ambient conditions (FC) or allowed to cool to specified temperature on the heating plate (SC). The results are given below in Table-11. As set forth below, the ratio of solvent mixtures are given by volume. Temperature and time are approximate. […]

Series [3] is described as follows: XRPD after storage for four years at 2-8° C. An excerpt:
Without wishing to be bound by theory, the results of FIGS. 5 and 6 are further supported by FIG. 7. […] (710).

As to `C[C@@]12OC(=O)[C@]1([C@@H](O)[C@@H]1C=CCCC1)NC(=O)[C@@H]2CCCl` [marizomib], the Crystalline salt formation entry in the series “Salt screen of marizomib” was “No crystalline salt of marizomib was produced”. In addition, the “Morphic form on heating (variable temperature XRPD)” value in series [1] was “stable even at elevated temperatures”. In addition, in series [2], the “Morphic form observed after exposure to solvents and anti-solvents” value is on record as “only morphic Form I was observed”. For the same compound, the “XRPD spectra initially versus after storage” value in series [3] is given as “substantially identical”.
